Source: ChEMBL document CHEMBL1151081, “Synthesis of avermectin B1-4,4a-oxide: a precursor of potent anthelmintic agents” (Bioorg Med Chem Lett, 1992)
In brackets after ≈: the same amount, converted by molar mass.

How the values were obtained:
Caenorhabditis elegans = experiment: Inhibition of Caenorhabditis elegans binding evaluated using Caenorhabditis elegans motility assay; assay type: functional, organism-based
Artemia salina = experiment: Inhibition of Artemia salina evaluated using Arternia salina Immobilization assay; assay type: functional
Gerbillinae [1] = experiment: In vivo Effective dose against Trichostrongylus colubriformis in Trichostrongylus colubriformis assay using gerbils; assay type: functional
Gerbillinae [2] = experiment: In vivo Effective dose against Trichostrongylus colubriformis in T. colubriformis assay using Gerbils; assay type: functional
[3] = Caenorhabditis elegans, read-out: IC50

| Compound | IC50 (Caenorhabditis elegans; [3]) | IC50 (Caenorhabditis elegans) | IC100 (Artemia salina) | ED85 (Gerbillinae [1]) | ED85 (Gerbillinae [2]) |
| --- | --- | --- | --- | --- | --- |
| CCC(C)[C@H]1O[C@]2(C=C[C@@H]1C)C[C@@H]1C[C@@H](C/C=C(\C)[C@@H](O[C@H]3C[C@H](OC)[C@@H](O[C@H]4C[C@H](OC)C(O)(CC#N)C[C@H](C)O4)[C@H](C)O3)[C@@H](C)/C=C/C=C3\CO[C@@H]4[C@H](O)C(C)=C[C@@H](C(=O)O1)[C@]34O)O2 (some centres not stated) | 0.7 ng/mL (≈ 0.756 nM) | – | 870 ng/mL | – | 0.031 mg/kg |
| CCC(C)[C@H]1O[C@]2(C=C[C@@H]1C)C[C@@H]1C[C@@H](C/C=C(\C)[C@@H](O[C@H]3C[C@H](OC)[C@@H](O[C@H]4C[C@H](OC)[C@@](O)(CSc5ccncc5)[C@H](C)O4)[C@H](C)O3)[C@@H](C)/C=C/C=C3\CO[C@@H]4[C@H](O)C(C)=C[C@@H](C(=O)O1)[C@]34O)O2 (some centres not stated) | 0.11 ng/mL (≈ 0.11 nM) | – | 6930 ng/mL | 0.125 mg/kg | – |
| CCC(C)[C@H]1O[C@]2(C=C[C@@H]1C)C[C@@H]1C[C@@H](C/C=C(\C)[C@@H](O[C@H]3C[C@H](OC)[C@@H](O[C@H]4C[C@H](OC)[C@@](O)(CNCC5CCCCC5)[C@H](C)O4)[C@H](C)O3)[C@@H](C)/C=C/C=C3\CO[C@@H]4[C@H](O)C(C)=C[C@@H](C(=O)O1)[C@]34O)O2 (some centres not stated) | 0.13 ng/mL (≈ 0.13 nM) | – | 55500 ng/mL | 0.25 mg/kg | – |
| CCOC(CNC[C@@]1(O)[C@H](C)O[C@@H](O[C@H]2[C@H](C)O[C@@H](O[C@@H]3/C(C)=C/C[C@@H]4C[C@@H](C[C@]5(C=C[C@H](C)[C@@H](C(C)CC)O5)O4)OC(=O)[C@@H]4C=C(C)[C@@H](O)[C@H]5OC/C(=C\C=C\[C@@H]3C)[C@]54O)C[C@@H]2OC)C[C@@H]1OC)OCC (some centres not stated) | 0.15 ng/mL (≈ 0.147 nM) | – | 13900 ng/mL | 0.125 mg/kg | – |
| CCC(C)[C@H]1O[C@]2(C=C[C@@H]1C)C[C@@H]1C[C@@H](C/C=C(\C)[C@@H](O[C@H]3C[C@H](OC)[C@@H](O[C@H]4C[C@H](OC)[C@@](O)(CNCc5ccco5)[C@H](C)O4)[C@H](C)O3)[C@@H](C)/C=C/C=C3\CO[C@@H]4[C@H](O)C(C)=C[C@@H](C(=O)O1)[C@]34O)O2 (some centres not stated) | 0.1 ng/mL (≈ 0.102 nM) | – | 10415 ng/mL | 0.063 mg/kg | – |
| IVERMECTIN [listing 1 of 2 here] | – | – | 430 ng/mL | 0.063 mg/kg | – |
| CCC(C)[C@H]1O[C@]2(C=C[C@@H]1C)C[C@@H]1C[C@@H](C/C=C(\C)[C@@H](O[C@H]3C[C@H](OC)[C@@H](O[C@H]4C[C@H](OC)[C@@](O)(CSC(C)=O)[C@H](C)O4)[C@H](C)O3)[C@@H](C)/C=C/C=C3\CO[C@@H]4[C@H](O)C(C)=C[C@@H](C(=O)O1)[C@]34O)O2 (some centres not stated) | 0.18 ng/mL (≈ 0.187 nM) | – | 1730 ng/mL | 0.125 mg/kg | – |

Continued, in another order:

| IC50 (Caenorhabditis elegans; [3]) | IC50 (Caenorhabditis elegans) | Compound | IC100 (Artemia salina) | ED85 (Gerbillinae [1]) | ED85 (Gerbillinae [2]) |
| --- | --- | --- | --- | --- | --- |
| 1.28 ng/mL (≈ 1.29 nM) | – | CCC(C)[C@H]1O[C@]2(C=C[C@@H]1C)C[C@@H]1C[C@@H](C/C=C(\C)[C@@H](O[C@H]3C[C@H](OC)[C@@H](O[C@H]4C[C@H](OC)[C@@](O)(CSCC(=O)OC)[C@H](C)O4)[C@H](C)O3)[C@@H](C)/C=C/C=C3\CO[C@@H]4[C@H](O)C(C)=C[C@@H](C(=O)O1)[C@]34O)O2 (some centres not stated) | 870 ng/mL | 0.25 mg/kg | – |
| 1.11 ng/mL (≈ 1.14 nM) | – | CCC(C)[C@H]1O[C@]2(C=C[C@@H]1C)C[C@@H]1C[C@@H](C/C=C(\C)[C@@H](O[C@H]3C[C@H](OC)[C@@H](O[C@H]4C[C@H](OC)C(O)(CSC(C)=O)C[C@H](C)O4)[C@H](C)O3)[C@@H](C)/C=C/C=C3\CO[C@@H]4[C@H](O)C(C)=C[C@@H](C(=O)O1)[C@]34O)O2 (some centres not stated) | 1300 ng/mL | – | 0.031 mg/kg |
| 1.39 ng/mL (≈ 1.45 nM) | – | CCCNCC1(O)C[C@H](C)O[C@@H](O[C@H]2[C@H](C)O[C@@H](O[C@@H]3/C(C)=C/C[C@@H]4C[C@@H](C[C@]5(C=C[C@H](C)[C@@H](C(C)CC)O5)O4)OC(=O)[C@@H]4C=C(C)[C@@H](O)[C@H]5OC/C(=C\C=C\[C@@H]3C)[C@]54O)C[C@@H]2OC)C[C@@H]1OC (some centres not stated) | 27800 ng/mL | – | 0.125 mg/kg |
| 0.17 ng/mL (≈ 0.18 nM) | – | CCCNC[C@@]1(O)[C@H](C)O[C@@H](O[C@H]2[C@H](C)O[C@@H](O[C@@H]3/C(C)=C/C[C@@H]4C[C@@H](C[C@]5(C=C[C@H](C)[C@@H](C(C)CC)O5)O4)OC(=O)[C@@H]4C=C(C)[C@@H](O)[C@H]5OC/C(=C\C=C\[C@@H]3C)[C@]54O)C[C@@H]2OC)C[C@@H]1OC (some centres not stated) | 6930 ng/mL | 0.125 mg/kg | – |
| – | 0.2 ng/mL | IVERMECTIN [listing 2 of 2 here] | – | – | – |
| 0.88 ng/mL (≈ 0.875 nM) | – | CCC(C)[C@H]1O[C@]2(C=C[C@@H]1C)C[C@@H]1C[C@@H](C/C=C(\C)[C@@H](O[C@H]3C[C@H](OC)[C@@H](O[C@H]4C[C@H](OC)C(O)(CSCC(=O)OC)C[C@H](C)O4)[C@H](C)O3)[C@@H](C)/C=C/C=C3\CO[C@@H]4[C@H](O)C(C)=C[C@@H](C(=O)O1)[C@]34O)O2 (some centres not stated) | 1300 ng/mL | – | 0.063 mg/kg |
| 0.13 ng/mL (≈ 0.132 nM) | – | CCC(C)[C@H]1O[C@]2(C=C[C@@H]1C)C[C@@H]1C[C@@H](C/C=C(\C)[C@@H](O[C@H]3C[C@H](OC)[C@@H](O[C@H]4C[C@H](OC)[C@@](O)(CSc5ncc[nH]5)[C@H](C)O4)[C@H](C)O3)[C@@H](C)/C=C/C=C3\CO[C@@H]4[C@H](O)C(C)=C[C@@H](C(=O)O1)[C@]34O)O2 (some centres not stated) | 430 ng/mL | 0.031 mg/kg | – |
| 1.28 ng/mL (≈ 1.28 nM) | – | CCC(C)[C@H]1O[C@]2(C=C[C@@H]1C)C[C@@H]1C[C@@H](C/C=C(\C)[C@@H](O[C@H]3C[C@H](OC)[C@@H](O[C@H]4C[C@H](OC)[C@@](O)(CSC5CCCCC5)[C@H](C)O4)[C@H](C)O3)[C@@H](C)/C=C/C=C3\CO[C@@H]4[C@H](O)C(C)=C[C@@H](C(=O)O1)[C@]34O)O2 (some centres not stated) | 6930 ng/mL | 0.25 mg/kg | – |
